{
  "source": "patent US8119635B2",
  "about": "“Diazabicyclic central nervous system active agents” (Abbott Laboratories, priority 2000, dated 2012)",
  "note": "Where a name gives a salt, the structure may show the parent alone.",
  "data": [
    {"biological_target": "T1, neuronal nicotinic acetylcholine receptors (Rattus norvegicus, UniProt P09483+P12390)", "T1 construct": "crude synaptic membrane preparations from whole rat brain; from tissue; host or cells: whole rat brain, crude synaptic membranes", "T1 sequence (P09483 31-630)": "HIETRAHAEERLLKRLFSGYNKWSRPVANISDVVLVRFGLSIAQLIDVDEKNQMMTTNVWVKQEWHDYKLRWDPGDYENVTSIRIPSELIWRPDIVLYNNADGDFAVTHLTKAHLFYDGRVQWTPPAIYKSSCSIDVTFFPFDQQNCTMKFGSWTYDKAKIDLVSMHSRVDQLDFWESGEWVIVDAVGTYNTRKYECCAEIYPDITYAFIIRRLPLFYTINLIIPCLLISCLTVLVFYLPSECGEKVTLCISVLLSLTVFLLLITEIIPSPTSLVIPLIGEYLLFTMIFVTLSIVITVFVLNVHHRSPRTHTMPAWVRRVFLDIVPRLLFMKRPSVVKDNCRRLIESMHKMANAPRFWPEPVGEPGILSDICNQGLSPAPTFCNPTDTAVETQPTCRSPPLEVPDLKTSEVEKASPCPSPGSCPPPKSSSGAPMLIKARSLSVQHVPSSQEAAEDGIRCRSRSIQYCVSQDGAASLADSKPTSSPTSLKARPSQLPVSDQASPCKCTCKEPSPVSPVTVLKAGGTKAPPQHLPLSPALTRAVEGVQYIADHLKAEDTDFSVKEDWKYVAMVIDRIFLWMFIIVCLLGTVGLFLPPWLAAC", "T1 sequence (P12390 25-500)": "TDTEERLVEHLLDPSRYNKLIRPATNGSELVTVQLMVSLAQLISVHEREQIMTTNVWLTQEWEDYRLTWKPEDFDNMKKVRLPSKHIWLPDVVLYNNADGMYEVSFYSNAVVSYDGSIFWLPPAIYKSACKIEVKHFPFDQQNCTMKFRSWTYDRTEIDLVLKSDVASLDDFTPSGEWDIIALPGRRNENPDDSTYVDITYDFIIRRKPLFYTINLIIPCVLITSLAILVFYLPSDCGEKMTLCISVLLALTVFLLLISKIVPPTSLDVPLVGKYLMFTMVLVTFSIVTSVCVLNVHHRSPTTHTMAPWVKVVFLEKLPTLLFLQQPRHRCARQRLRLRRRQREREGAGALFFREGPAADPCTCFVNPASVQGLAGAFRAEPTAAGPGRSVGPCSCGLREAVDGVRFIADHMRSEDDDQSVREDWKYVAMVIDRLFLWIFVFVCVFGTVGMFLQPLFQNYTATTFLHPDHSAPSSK", "assay": "Binding of [3H]-cytisine to neuronal nicotinic acetylcholine receptors, crude synaptic membranes from whole rat brain", "settings": "not given", "protocol": "(§1) The In Vitro protocols for determination of nicotinic acetylcholine channel receptor binding potencies of ligands were determined as follows.\n(§2) Washed membranes were stored at −80° C. prior to use. Frozen aliquots were slowly thawed and resuspended in 20 volumes of buffer (containing: 120 mM NaCl, 5 mM KCl, 2 mM MgCl2, 2 mM CaCl2 and 50 mM Tris-Cl, pH 7.4 @[…]). After centrifuging at 20,000×g for 15 minutes, the pellets were resuspended in 30 volumes of buffer.\n(§3) The test compounds were dissolved in water to make 10 mM stock solutions. Each solution was then diluted (1:100) with buffer (as above) and further taken through seven serial log dilutions to produce test solutions from 10^−5 to 10^−11 M.\n(§4) Samples were incubated for 60 minutes at 4° C., then rapidly filtered through Whatman GF/B filters presoaked in 0.5% polyethyleneimine using 3×4 mL of ice-cold buffer. The filters are counted in 4 mL of Ecolume® (ICN). Nonspecific binding was determined in the presence of 10 μM (−)-nicotine and values were expressed as a percentage of total binding. IC50 values were determined with the RS-1 (BBN) nonlinear least squares curve-fitting program and IC50 values were converted to Ki values using the Cheng and Prusoff correction (Ki=IC50/(1+[ligand]/Kd of ligand).", "units": {"Ki": "nM"}, "values": [
      {"smiles": "Clc1ccc(N2C[C@H]3CNC[C@H]32)cn1", "note": "[Example 57, (1R,5S)-6-(6-chloro-3-pyridinyl)-3,6-diazabicyclo[3.2.0]heptane fumarate]", "Ki": 1.2},
      {"smiles": "Clc1ccc(N2CC[C@@H]3CNC[C@@H]32)cn1", "note": "[Example 73, (3aR,6aR)-1-(6-chloro-3-pyridinyl)octahydropyrrolo[3,4-b]pyrrole fumarate]", "Ki": 24},
      {"smiles": "Cc1cc(N2C[C@@H]3CCNC[C@@H]32)cnc1Cl", "note": "[Example 90, (1R,6S)-8-(6-chloro-5-methyl-3-pyridinyl)-3,8-diazabicyclo[4.2.0]octane fumarate]", "Ki": 0.04},
      {"smiles": "c1cncc(N2CC[C@@H]3CNC[C@@H]32)c1", "note": "[Example 75, (3aR,6aR)-1-(3-pyridinyl)octahydropyrrolo[3,4-b]pyrrole fumarate]", "Ki": 6.9},
      {"smiles": "N#CCc1cc(N2C[C@H]3CCN[C@H]3C2)cnc1Br", "note": "[Example 66, [5-((3aR,6aR)-hexahydropyrrolo[3,4-b]pyrrol-5(1H)-yl)-2-bromo-3-pyridinyl]acetonitrile fumarate]", "Ki": 0.26},
      {"smiles": "c1cncc(N2CC[C@@H]3CCN[C@@H]3C2)c1", "note": "(relative stereo) [Example 39, (cis)-6-(3-pyridinyl)octahydro-1H-pyrrolo[2,3-c]pyridine dihydrochloride]", "Ki": 0.54},
      {"smiles": "[N-]=[N+]=Nc1cncc(N2C[C@H]3CNC[C@H]32)c1", "note": "[Example 96, (1R,5S)-6-(5-azido-3-pyridinyl)-3,6-diazabicyclo[3.2.0]heptane fumarate]", "Ki": 1.9},
      {"smiles": "Clc1ccc(N2CC[C@H]3CNC[C@H]32)cn1", "note": "[Example 77, (3aS,6aS)-1-(6-chloro-3-pyridinyl)octahydropyrrolo[3,4-b]pyrrole fumarate]", "Ki": 19},
      {"smiles": "c1cncc(N2CC[C@H]3CNC[C@H]32)c1", "note": "[Example 78, (3aS,6aS)-1-(3-pyridinyl)octahydropyrrolo[3,4-b]pyrrole dihydrochloride]", "Ki": 25},
      {"smiles": "Clc1ccc(N2CC[C@H]3CN[C@H]3C2)cn1", "note": "(relative stereo) [Example 42, (cis)-3-(6-chloro-3-pyridinyl)-3,8-diazabicyclo[4.2.0]octane bis(4-methylbenzenesulfonate)]", "Ki": 0.03},
      {"smiles": "Brc1cncc(N2C[C@@H]3CCN[C@@H]3C2)c1", "note": "[Example 31, (3aS,6aS)-5-(5-bromo-3-pyridinyl)octahydropyrrolo[3,4-b]pyrrole 4-methylbenzenesulfonate]", "Ki": 14},
      {"smiles": "N#Cc1cncc(N2CC[C@H]3CNC[C@H]32)c1", "note": "[Example 83, 5-((3aS,6aS)-hexahydropyrrolo[3,4-b]pyrrol-1(2H)-yl)nicotinonitrile fumarate]", "Ki": 97},
      {"smiles": "Clc1ccc(N2C[C@H]3NCC[C@H]32)cn1", "note": "[Example 19, (1R,5R)-6-(6-chloro-3-pyridinyl)-2,6-diazabicyclo[3.2.0]heptane bis(4-methylbenzenesulfonate)]", "Ki": 576},
      {"smiles": "N#Cc1cncc(N2C[C@H]3CCNC[C@H]32)c1", "note": "[Example 61, 5-[(1S,6R)-3,8-diazabicyclo[4.2.0]oct-8-yl]nicotinonitrile fumarate]", "Ki": 2.5},
      {"smiles": "N#Cc1cncc(N2CC[C@@H]3CNC[C@@H]32)c1", "note": "[Example 81, 5-((3aR,6aR)-hexahydropyrrolo[3,4-b]pyrrol-1(2H)-yl)nicotinonitrile]", "Ki": 11},
      {"smiles": "N#Cc1cncc(N2C[C@H]3CN[C@H]3C2)c1", "note": "[Example 79, 5-[(1R,5R)-3,6-diazabicyclo[3.2.0]hept-3-yl]nicotinonitrile fumarate]", "Ki": 0.12},
      {"smiles": "Clc1ccc(N2CC[C@@H]3CNC[C@@H]32)cn1", "note": "(relative stereo) [Example 16, cis-1-(6-chloro-3-pyridinyl)octahydropyrrolo[3,4-b]pyrrole hydrochloride]", "Ki": 23},
      {"smiles": "Clc1ccc(N2C[C@H]3CN[C@H]3C2)cn1", "note": "[Example 80, (1R,5R)-3-(6-chloro-3-pyridinyl)-3,6-diazabicyclo[3.2.0]heptane fumarate]", "Ki": 0.17},
      {"smiles": "Clc1cc(N2C[C@@H]3CCN[C@@H]3C2)cnc1Cl", "note": "[Example 25, (3aS,6aS)-5-(5,6-dichloro-3-pyridinyl)octahydropyrrolo[3,4-b]pyrrole hydrochloride]", "Ki": 1.4},
      {"smiles": "CN1C[C@@H]2CN(c3ccc(Cl)nc3)C[C@@H]2C1", "note": "[Example 4, cis-2-(6-chloro-3-pyridinyl)-5-methyloctahydropyrrolo[3,4-c]pyrrole dihydrochloride]", "Ki": 36},
      {"smiles": "Clc1cc(N2C[C@H]3CCN[C@H]3C2)cnc1Br", "note": "[Example 59, (3aR,6aR)-5-(6-bromo-5-chloro-3-pyridinyl)octahydropyrrolo[3,4-b]pyrrole fumarate]", "Ki": 0.35},
      {"smiles": "Clc1ccc(N2CC[C@H]3CN[C@H]3C2)cn1", "note": "[Example 49, (1R,6S)-3-(6-chloro-3-pyridinyl)-3,8-diazabicyclo[4.2.0]octane fumarate]", "Ki": 0.02},
      {"smiles": "Oc1cncc(N2C[C@H]3CNC[C@H]3C2)c1", "note": "[Example 6, cis-2-(5-hydroxy-3-pyridinyl)octahydropyrrolo[3,4-c]pyrrole dihydrochloride]", "Ki": 0.75},
      {"smiles": "COc1cc(N2C[C@H]3CNC[C@H]32)cnc1Br", "note": "[Example 95, (1R,5S)-6-(6-bromo-5-methoxy-3-pyridinyl)-3,6-diazabicyclo[3.2.0]heptane 4-methylbenzenesulfonate]", "Ki": 0.12},
      {"smiles": "Clc1ccc(N2C[C@H]3CNC[C@H]32)cn1", "note": "(relative stereo) [Example 46, (cis)-6-(6-chloro-3-pyridinyl)-3,6-diazabicyclo[3.2.0]heptane fumarate]", "Ki": 0.73}
    ]},
    {"biological_target": "T1, neuronal nicotinic acetylcholine receptors", "assay": "Binding of [3H]-cytisine to neuronal nicotinic acetylcholine receptors, crude synaptic membranes from whole rat brain", "settings": "[3H]-CYT 1.25 nM, whole rat brain membranes, 60 minutes at 4° C.; IC50 converted to Ki by Cheng and Prusoff correction; read-out: Average Ki", "protocol": "as §1, §2, §3, §4", "units": {"Ki": "nM"}, "values": [
      {"smiles": "c1cncc(N2C[C@H]3NCC[C@H]32)c1", "note": "[Example 20, (1R,5R)-6-(3-pyridinyl)-2,6-diazabicyclo[3.2.0]heptane bis(4-methylbenzenesulfonate)]", "Ki": 122},
      {"smiles": "Oc1cncc(N2CC[C@H]3CNC[C@H]32)c1", "note": "[Example 82, (3aS,6aS)-1-(5-hydroxy-3-pyridinyl)octahydropyrrolo[3,4-b]pyrrole dihydrochloride]", "Ki": 363},
      {"smiles": "Clc1cc(N2C[C@@H]3CCNC[C@@H]32)cnc1Cl", "note": "[Example 94, (1R,6S)-8-(5,6-dichloro-3-pyridinyl)-3,8-diazabicyclo[4.2.0]octane 4-methylbenzenesulfonate]", "Ki": 0.12},
      {"smiles": "COc1cncc(N2C[C@H]3CCNC[C@H]32)c1", "note": "[Example 88, (1S,6R)-8-(5-methoxy-3-pyridinyl)-3,8-diazabicyclo[4.2.0]octane fumarate]", "Ki": 0.56},
      {"smiles": "Cc1cc(N2C[C@H]3CCNC[C@H]32)cnc1Cl", "note": "[Example 89, (1S,6R)-8-(6-chloro-5-methyl-3-pyridinyl)-3,8-diazabicyclo[4.2.0]octane fumarate]", "Ki": 0.24},
      {"smiles": "Clc1cc(N2C[C@H]3CCNC[C@H]32)cnc1Cl", "note": "[Example 93, (1S,6R)-8-(5,6-dichloro-3-pyridinyl)-3,8-diazabicyclo[4.2.0]octane 4-methylbenzenesulfonate]", "Ki": 0.3},
      {"smiles": "c1cncc(N2C[C@H]3CCNC[C@H]32)c1", "note": "[Example 91, (1S,6R)-8-(3-pyridinyl)-3,8-diazabicyclo[4.2.0]octane 4-methylbenzenesulfonate]", "Ki": 1.1},
      {"smiles": "c1cncc(N2C[C@@H]3CCN[C@@H]3C2)c1", "note": "[Example 30, (3aS,6aS)-5-(3-pyridinyl)octahydropyrrolo[3,4-b]pyrrole 4-methylbenzenesulfonate]", "Ki": 2.9},
      {"smiles": "c1cncc(N2CC[C@H]3NC[C@H]32)c1", "note": "[Example 18, (1R,5R)-2-(3-pyridinyl)-2,6-diazabicyclo[3.2.0]heptane bis(4-methylbenzenesulfonate)]", "Ki": 154}
    ]}
  ]
}
